We go through five compounds from ChEMBL document CHEMBL1201862, “PubChem BioAssay data set” (2004).

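Test compounds were applied to cells in 96-well plates for 48 hours at 5 doses. GI50 marks 50% less growth.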 Active and inactive are the calls of the source. No stated cut-off is given here; in the data, active = GI50 up to about 1.1 µM and inactive = higher.

What all share (experiment): inhibition of tumour cell growth, NCI panel, 48 h
Test [1] deals with KM12.
Test [2] concerns SK-MEL-2.
In test [3] the test system is NCI-H226.
Test [4] deals with HL-60.
The subject of test [5] is K562.
In test [6] the test system is M14.
Test [7] has as its system HCT-15.
For test [8], the system named is UACC-257.
The test system of test [9] is IGROV-1.
Test [10] has as its system SW-620.
Test [11] deals with ACHN.
The subject of test [12] is SK-MEL-28.
The test system of test [13] is SK-OV-3.
The test system of test [14] is SF-539.
The test system of test [15] is RXF 393.
Test [16] has as its system SK-MEL-5.
Test [17] has as its system SNB-75.
For test [18], the system named is HOP-92.

On to `CC(=O)c1sc(-c2nc(C)c(C(=O)/C=C\c3ccc(/C=C\C(=O)c4sc(-c5nc(C)c(C(C)=O)s5)nc4C)cc3)s2)nc1C`, for which the GI50 in [1], in test [2], in test [3], in test [4], in [5] and in [6] was > 100 µM (inactive) throughout. In addition, the GI50 in test [7] was > 100 µM; in [8], > 100 µM (inactive); in test [9] it was > 100 µM (inactive); in test [10], > 100 µM (inactive); in test [11], > 100 µM (inactive); in test [12], > 100 µM (inactive). The GI50 in test [13], in test [14] and in [15] was > 100 µM (inactive) throughout.
Regarding `Cc1ccc(-c2cc(=O)c3cc(C)c(C)c(C(=O)O)c3o2)cc1[N+](=O)[O-]`, the GI50 in test [1] is > 100 µM (inactive); in test [2], > 100 µM (inactive); in [3], > 100 µM (inactive); in [5], > 100 µM (inactive); in test [6], > 100 µM (inactive); in test [7] it was > 100 µM. Also, the GI50 in test [16], in test [8], in test [17], in test [9], in test [10] and in test [11] was > 100 µM (inactive) throughout. Moreover, the GI50 in test [12], in [13], in [14] and in [15] was > 100 µM (inactive) throughout.
For the compound `COc1cccc2c1N[S@](=O)S2`, the GI50 was > 100 µM (inactive) in test [18]; > 100 µM (inactive) in [1]; > 100 µM (inactive) in test [2]; > 100 µM (inactive) in test [3]; > 100 µM (inactive) in test [4]; 46 µM (inactive) in [5]. For the same compound, the GI50 was > 100 µM (inactive) in test [6]; 82.4 µM in test [7]; > 100 µM (inactive) in test [8]; 81.5 µM (inactive) in [17]; > 100 µM (inactive) in test [9]; > 100 µM (inactive) in test [10]. Besides, the GI50 in test [11], in test [12], in test [13] and in [14] was > 100 µM (inactive) in each case.
For the compound `O=C1C[C@@H]2[C@@H](CCC23CC3)N1`, the GI50 in test [1], in test [2], in [3], in [4], in [5] and in [6] was > 100 µM (inactive) in each case. The GI50 in [16], in test [8], in test [17], in test [9], in test [10] and in [12] was > 100 µM (inactive) throughout. The GI50 in [13], in [14] and in test [15] was > 100 µM (inactive) throughout.
Consider `O=C(O)OC12CCCCCC1C(=O)C1CCCCC12` (configuration not stated), for which the GI50 is > 100 µM (inactive) in test [1]; > 100 µM (inactive) in [2]; > 100 µM (inactive) in test [3]; 47 µM (inactive) in [4]; 42 µM (inactive) in test [5]; > 100 µM (inactive) in [6]. Further, the GI50 in [7] is 78.2 µM; in [16], > 100 µM (inactive); in [8], > 100 µM (inactive); in test [17], 20.1 µM (inactive); in test [10], > 100 µM (inactive); in test [11], > 100 µM (inactive). In addition, the GI50 in [12] is > 100 µM (inactive); in test [13] it was > 100 µM (inactive); in test [15] it was 39.3 µM (inactive).
